The values that follow come from patent US20260138969A1 (Korea Research Institute of Chemical Technology, priority 2023, published 2026).

The first assay has as its target T1, recombinant human ASK1 protein (Homo sapiens, UniProt Q99683).
T1 sequence (Q99683 1-1374): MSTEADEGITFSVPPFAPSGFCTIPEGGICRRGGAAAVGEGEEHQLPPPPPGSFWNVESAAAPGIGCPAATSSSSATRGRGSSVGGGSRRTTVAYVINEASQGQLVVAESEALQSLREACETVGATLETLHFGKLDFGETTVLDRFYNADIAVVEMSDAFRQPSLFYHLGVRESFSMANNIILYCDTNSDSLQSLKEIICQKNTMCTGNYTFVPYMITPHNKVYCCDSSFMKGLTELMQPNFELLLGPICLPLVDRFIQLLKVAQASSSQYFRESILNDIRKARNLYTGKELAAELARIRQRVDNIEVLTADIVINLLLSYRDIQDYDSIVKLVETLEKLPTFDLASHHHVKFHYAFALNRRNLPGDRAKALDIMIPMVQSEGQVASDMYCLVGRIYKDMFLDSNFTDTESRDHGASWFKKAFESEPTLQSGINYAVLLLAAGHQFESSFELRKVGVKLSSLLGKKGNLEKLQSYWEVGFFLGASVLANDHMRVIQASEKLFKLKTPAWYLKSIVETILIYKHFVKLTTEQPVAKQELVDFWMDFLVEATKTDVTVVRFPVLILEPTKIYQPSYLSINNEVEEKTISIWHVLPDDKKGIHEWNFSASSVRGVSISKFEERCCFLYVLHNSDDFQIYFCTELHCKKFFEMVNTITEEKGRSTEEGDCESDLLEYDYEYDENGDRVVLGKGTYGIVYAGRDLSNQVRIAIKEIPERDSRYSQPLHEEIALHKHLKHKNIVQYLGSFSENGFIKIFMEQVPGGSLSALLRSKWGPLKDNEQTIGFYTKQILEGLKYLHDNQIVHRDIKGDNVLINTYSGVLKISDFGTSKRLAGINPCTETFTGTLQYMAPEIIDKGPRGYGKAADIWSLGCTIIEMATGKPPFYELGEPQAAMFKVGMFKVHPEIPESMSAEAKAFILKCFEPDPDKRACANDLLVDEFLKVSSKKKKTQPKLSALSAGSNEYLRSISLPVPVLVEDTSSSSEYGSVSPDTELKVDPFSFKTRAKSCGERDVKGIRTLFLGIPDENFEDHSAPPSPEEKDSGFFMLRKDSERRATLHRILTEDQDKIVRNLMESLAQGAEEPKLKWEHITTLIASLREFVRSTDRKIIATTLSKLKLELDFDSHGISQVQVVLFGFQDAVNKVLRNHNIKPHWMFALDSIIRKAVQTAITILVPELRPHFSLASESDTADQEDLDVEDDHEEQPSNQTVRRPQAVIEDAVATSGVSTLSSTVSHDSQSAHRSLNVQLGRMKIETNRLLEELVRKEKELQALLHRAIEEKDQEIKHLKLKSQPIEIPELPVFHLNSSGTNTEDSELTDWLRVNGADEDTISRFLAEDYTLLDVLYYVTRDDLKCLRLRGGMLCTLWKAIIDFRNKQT
Kind of assay: Evaluation of ASK1 inhibition activity ([gamma-33P]-ATP, scintillation counting). In kind it is biochemical. The conditions noted are these: 0.5 uM; activity of group without compound set at 100%; read-out: Remaining kinase activity (%) at 0.5 uM. The protocol:
The recombinant human ASK1 protein was initiated by adding a mixture of Mg/ATP to the reaction solution (8 mM MOPS PH 7.0, 0.2 mM EDTA, 0.33 mg/mL myelin basic protein, 10 mM Mg Acetate and [gamma-33P]-ATP), and the reaction was terminated by adding 0.5% phosphoric acid after 40 min at room temperature.
With `Cc1cc(OC(F)F)c(C(=O)Nc2cccc(-n3nnc4c3CCCC4)n2)cc1-n1cnc(C2CC2)c1` [Example 15, 5-(4-cyclopropyl-1H-imidazol-1-yl)-2-(difluoromethoxy)-4-methyl-N-(6-(4,5,6,7-tetrahydro-1H-benzo[d][1,2,3]triazol-1-yl)pyridin-2-yl)benzamide], the remaining activity at 0.5 µM amounted to 8%.

Take `CCOc1ccc(-n2cnc(C3CC3)c2)cc1C(=O)Nc1cccc(-n2nnc3c2CCC3)n1` [Example 16, 5-(4-cyclopropyl-1H-imidazol-1-yl)-N-(6-(5,6-dihydrocyclopenta[d][1,2,3]triazol-1 (4H)-yl)pyridin-2-yl)-2-ethoxybenzamide]: the remaining activity at 0.5 µM was 11%.

For the compound `CCOc1ccc(-n2cnc(C3CC3)c2)cc1C(=O)Nc1cccc(-n2nnc3c2CCCC3)n1` [Example 17, 5-(4-cyclopropyl-1H-imidazol-1-yl)-2-ethoxy-N-(6-(4,5,6,7-tetrahydro-1H-benzo[d][1,2,3]triazol-1-yl)pyridin-2-yl)benzamide], the remaining activity at 0.5 µM turned out to be 2%.

With `CC(C)Oc1ccc(-n2cnc(C3CC3)c2)cc1C(=O)Nc1cccc(-n2nnc3c2CCC3)n1` [Example 18, 5-(4-cyclopropyl-1H-imidazol-1-yl)-N-(6-(5,6-dihydrocyclopenta[d][1,2,3]triazol-1 (4H)-yl)pyridin-2-yl)-2-isopropoxybenzamide], the remaining activity at 0.5 µM amounted to 11%.

As for `CC(C)Oc1ccc(-n2cnc(C3CC3)c2)cc1C(=O)Nc1cccc(-n2nnc3c2CCCC3)n1` [Example 19, 5-(4-cyclopropyl-1H-imidazol-1-yl)-2-isopropoxy-N-(6-(4,5,6,7-tetrahydro-1H-benzo[d][1,2,3]triazol-1-yl)pyridin-2-yl)benzamide], the remaining activity at 0.5 µM was determined as 9%.

`O=C(Nc1cccc(-n2nnc3c2CCC3)n1)c1cc(-n2cnc(C3CC3)c2)ccc1OCC(F)(F)F` [Example 20, 5-(4-cyclopropyl-1H-imidazol-1-yl)-N-(6-(5,6-dihydrocyclopenta[d][1,2,3]triazol-1 (4H)-yl)pyridin-2-yl)-2-(2,2,2-trifluoroethoxy)benzamide]: the remaining activity at 0.5 µM came out at 3%.

Regarding `O=C(Nc1cccc(-n2nnc3c2CCCC3)n1)c1cc(-n2cnc(C3CC3)c2)ccc1OCC(F)(F)F` [Example 21, 5-(4-cyclopropyl-1H-imidazol-1-yl)-N-(6-(4,5,6,7-tetrahydro-1H-benzo[d][1,2,3]triazol-1-yl)pyridin-2-yl)-2-(2,2,2-trifluoroethoxy)benzamide], the remaining activity at 0.5 µM amounted to 16%.

Take `O=C(Nc1cccc(-n2nnc3c2CCC3)n1)c1cc(-n2cnc(C3CC3)c2)ccc1OC1CC1` [Example 22, 2-cyclopropoxy-5-(4-cyclopropyl-1H-imidazol-1-yl)-N-(6-(5,6-dihydrocyclopenta[d][1,2,3]triazol-1 (4H)-yl)pyridin-2-yl)benzamide]: the remaining activity at 0.5 µM worked out at 24%.

With `O=C(Nc1cccc(-n2nnc3c2CCCC3)n1)c1cc(-n2cnc(C3CC3)c2)ccc1OC1CC1` [Example 23, 2-cyclopropoxy-5-(4-cyclopropyl-1H-imidazol-1-yl)-N-(6-(4,5,6,7-tetrahydro-1H-benzo[d][1,2,3]triazol-1-yl)pyridin-2-yl)benzamide], the remaining activity at 0.5 µM came to 38%.

Take `O=C(Nc1cccc(-n2nnc3c2CCC3)n1)c1cc(-n2cnc(C3CC3)c2)ccc1OC(F)(F)F` [Example 24, 5-(4-cyclopropyl-1H-imidazol-1-yl)-N-(6-(5,6-dihydrocyclopenta[d][1,2,3]triazol-1 (4H)-yl)pyridin-2-yl)-2-(trifluoromethoxy)benzamide]: the remaining activity at 0.5 µM was 5%.

For `O=C(Nc1cccc(-n2nnc3c2CCCC3)n1)c1cc(-n2cnc(C3CC3)c2)ccc1OC(F)(F)F` [Example 25, 5-(4-cyclopropyl-1H-imidazol-1-yl)-N-(6-(4,5,6,7-tetrahydro-1H-benzo[d][1,2,3]triazol-1-yl)pyridin-2-yl)-2-(trifluoromethoxy)benzamide], the remaining activity at 0.5 µM amounted to 14%.

Regarding `O=C(Nc1cccc(-n2nnc3c2CCC3)n1)c1cc(-n2cnc(C3CC3)c2)ccc1OC(F)F` [Example 26, 5-(4-cyclopropyl-1H-imidazol-1-yl)-2-(difluoromethoxy)-N-(6-(5,6-dihydrocyclopenta[d][1,2,3]triazol-1 (4H)-yl)pyridin-2-yl)benzamide], the remaining activity at 0.5 µM stood at 1%.

As for `O=C(Nc1cccc(-n2nnc3c2CCCC3)n1)c1cc(-n2cnc(C3CC3)c2)ccc1OC(F)F` [Example 27], the remaining activity at 0.5 µM came out at 4%.

In the next assay the test system is MPTP-induced PD mouse model. Kind of assay: MPTP-induced PD mouse model: TH staining of striatum and substantia nigra. In kind it is in vivo. Particulars: PO QD Day 1-7; Nilotinib 40 mg/kg, Example 3 2/10/50 mg/kg, Example 2 50 mg/kg; vs MPTP group G2. Here is the method: Mice at 7 weeks of age were divided into 7 groups as shown in Table 9 below to generate an acute MPTP model and proceed with drug administration: control group+vehicle (G1), MPTP+vehicle (G2), MPTP+Nilotinib 40 mg/kg (G3), MPTP+Example 3 2 mg/kg (G4), MPTP+Example 3 10 mg/kg (G5), MPTP+Example 3 50 mg/kg (G6), and MPTP+Example 2 50 mg/kg (G7). The test drug was administered orally (PO) at 10 ml/kg once daily (QD) from Day 1 to Day 7. The acute MPTP model will be performed at 2-hour intervals in all groups except the control group. […] was administered as intraperitoneal (IP) injection for 4 doses. The control group was given the same amount of 0.9% saline. The Pole test was performed on day 4 (after training on day 2 and day 3). On day 7, all mice were euthanized, and their brains were harvested.
Mice were euthanized with Zoletil administration for collection of tissue samples for staining and analysis of histological sections. Blood was collected from the heart of the mouse and then the residual blood was perfused with phosphate-buffered saline (PBS). For half of the mice (n=6/group), the brain was incised into the striatum, substantia nigra, and the rest of the brain, flash-frozen, and stored at −80° C. The remaining mice (n=6/group) had their brains isolated and immobilized in 4% paraformaldehyde for 24 hours at 4° C., followed by 30% sucrose in phosphate-buffered saline (PBS) containing 0.02% sodium azide and stored at 4° C. for 3 days. Immunohistochemical sections were performed on brain samples embedded with optimal cutting temperature (OCT) compounds. Samples were sectioned to a thickness of 20 μm using Leica CM1950 (Leica Microsystems, Germany) and stored at 4° C. in a preservation solution until staining with antibodies.
After staining the striatum and substantia nigra of the brain and mounting them on microscopic slides, the slides were washed with PBS containing 0.3% Triton X-100 and peroxidase block for 15 min at room temperature. The slides were washed three times with PBS containing 0.3% Triton X-100 and then blocked at RT (room temperature) for 1 hour in a solution containing PBS, 5% normal goat serum, and 0.3% Triton X-100. Tyrosine hydroxylase antibody was diluted at 1:1000 and incubated overnight at 4° C. The slides were washed with PBS solution and incubated for 1 h at RT with secondary antibody. The slides were washed with PBS solution and the sections were placed in the solution to proceed with the DAB (diaminobenzidine) reaction.
The DAB response was monitored under a microscope for 2 to 3 minutes, and the slides were washed with PBS to stop the DAB response, dehydrated, and mounted using xylene. An Olympus microscope (Olympus, SZ61, BX51) was used to visualize TH stained images. The optical density (OD) value of positive TH staining was measured in the striatum and substantia nigra and analyzed using Image J software.
For `Cc1cn(-c2cc(NC(=O)c3ccc(C)c(Nc4nccc(-c5cccnc5)n4)c3)cc(C(F)(F)F)c2)cn1` [Nilotinib, reference compound], the “TH levels in striatum” value is listed as “significantly higher than those in G2”.

One may read the remaining activity as the share of the control activity or signal that is left under treatment.
